Drawing on patent publication US9193717B2, “Mineralocorticoid receptor antagonists” (Merck Sharp & Dohme Corp., priority 2011, dated 2015), this text covers IC50 for 16 molecules.

The structures appear in SMILES notation.

In this assay the target is T1, full-length human Mineralocorticoid Receptor (MR) (Homo sapiens, UniProt P08235).
T1 construct: full-length human Mineralocorticoid Receptor (MR); host or cells: PathHunter CHO-K1 cells
T1 sequence (P08235 1-984): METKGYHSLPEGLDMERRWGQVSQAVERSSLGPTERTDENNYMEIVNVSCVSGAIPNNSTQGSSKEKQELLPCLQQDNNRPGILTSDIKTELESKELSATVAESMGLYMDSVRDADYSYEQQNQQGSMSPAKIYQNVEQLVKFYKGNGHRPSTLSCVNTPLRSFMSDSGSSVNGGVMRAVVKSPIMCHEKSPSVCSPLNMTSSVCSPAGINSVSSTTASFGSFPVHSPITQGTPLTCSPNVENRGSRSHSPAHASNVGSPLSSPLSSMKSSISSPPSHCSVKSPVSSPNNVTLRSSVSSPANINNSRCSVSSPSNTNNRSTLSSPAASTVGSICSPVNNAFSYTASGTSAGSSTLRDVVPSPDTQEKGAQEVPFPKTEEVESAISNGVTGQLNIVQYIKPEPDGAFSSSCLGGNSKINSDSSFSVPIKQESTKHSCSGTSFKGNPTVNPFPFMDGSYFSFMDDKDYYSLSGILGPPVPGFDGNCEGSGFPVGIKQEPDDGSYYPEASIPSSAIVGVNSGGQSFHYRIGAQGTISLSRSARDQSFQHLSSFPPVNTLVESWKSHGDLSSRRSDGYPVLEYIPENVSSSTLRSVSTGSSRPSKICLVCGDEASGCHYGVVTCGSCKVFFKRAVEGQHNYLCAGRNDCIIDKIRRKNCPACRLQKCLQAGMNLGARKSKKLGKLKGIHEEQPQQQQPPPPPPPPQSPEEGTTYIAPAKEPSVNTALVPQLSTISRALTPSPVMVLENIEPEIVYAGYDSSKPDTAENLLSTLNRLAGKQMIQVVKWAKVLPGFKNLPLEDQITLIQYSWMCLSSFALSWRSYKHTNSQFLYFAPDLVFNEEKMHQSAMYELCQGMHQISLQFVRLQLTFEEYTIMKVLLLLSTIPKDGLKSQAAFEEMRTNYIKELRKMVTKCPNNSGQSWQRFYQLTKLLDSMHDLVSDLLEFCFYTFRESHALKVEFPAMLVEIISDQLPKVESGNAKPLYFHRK
Description: human MR NH Pro assay (PathHunter Protein:Protein interaction assay, MR antagonism). The assay is classed as cell-based. The settings on record: PathHunter CHO-K1 cells that overexpress human MR; aldosterone (0.3 nM), 6 hours at 37° C.; antagonist mode; read-out: IC50 rating. On the procedure: The activity of the compounds of the present invention regarding mineralocorticoid receptor antagonism was evaluated using the following assay.
Assessment of Mr Potency in HMR NH Pro Assay
The human MR NH Pro assay is a commercially available PathHunter™ Protein:Protein interaction assay (DiscoveRx; http://www.discoverx.com/nhrs/prod-nhrs.php) that measures the ability of compounds to antagonize full-length human Mineralocorticoid Receptor (MR) binding to a coactivator peptide. PathHunter™ CHO—K1 cells that overexpress human MR (Cat #93-0456C2, Lot No: 09B0913) were cultured in growth media (F12K w/Glutamine and phenol red (Gibco 11765-047) supplemented with 10% HI FBS (Gibco 16000); 0.25 mg/ml Hygromycin in PBS (Invitrogen 10687-010, 50 mg/ml); 100 I.U./mL and 100 μg/mL Pen/Strep (Gibco 15140-122); 0.6 mg/mL Geneticin).
Compounds were assessed for MR antagonist activity by incubating the cells with a titrating dose of compound in F12K w/Glutamine and phenol red culture media (Invitrogen 11765-047) supplemented with 1% Charcoal/Dextran Treated FBS (Hyclone #SH30068.01) and aldosterone (0.3 nM) for 6 hours at 37° C. […] Growth Media: • F12K w/Glutamine and phenol red (Gibco 11765-047) • 10% HI FBS (Gibco 16000) • 0.25 mg/ml Hygromycin in PBS (Invitrogen 10687-010, 50 mg/ml) • 100 I.U./mL and 100 μg/mL Pen/Strep (Gibco 15140-122) • 0.6 mg/mL Geneticin (Gibco 10131, 50 mg/ml) • 2. Assay Media: • F12K w/Glutamine and phenol red (Invitrogen 11765-047) • 1% Charcoal/Dextran Treated FBS (Hyclone #SH30068.01) • 3. 3× PathHunter Detection Reagents (Cat#93-0001) (need ˜6 ml/plate). […] Control Agonist:Aldosterone:Sigma cat# A9477 • Prepare stock solution-10 μM in DMSO kept at −20° C. • for assay, dilute in assay media to 1.8 or 6 nM (6× of final concentration=about 0.3 nM to about 1.0 nM) • 5. Cell line: PathHunter CHO—K1 MR cells Cat #93-0456C2, Lot No: 09B0913, from operation liquid nitrogen stock. • 6. Control Antagonist:Spironolactone:Sigma #S-3378 and Eplerenone Sigma #107724-20-9 (10 mM stock concentration also prepared in DMSO and stored at −20° C.). • Methods: • Assay Set up and Calculations: • 1. Cells were grown in F12+FBS+Hygromycin+pen/strep+Genetin • 2. Cells were collected with 0.05% trypsin and the cell suspension was spun and resuspended in a volume of F12+1.5% CD-FBS and counted. • 3. The cells were resuspended to 4×10^5 cells/mL. • 4. Cells were (25 μL/well) added to the wells of a 384 well plate. • 5. The plate was then incubated at 37° C. over night in a humidified incubator with 5% CO2. • 6. Test compounds were titrated starting at 4.4 mM, 10-point titration in 1:3 dilution. • 7. Aldosterone was diluted in assay media to 1.8 nM or 6 nM from 10 μM stock (final concentration to be about 0.3 nM to about 1.0 nM). • Protocol for 384 Well Plate Format: 6 Hr Treatment: • 1. Plated 10K exponentially growing cells/well (25 μL) resuspended in assay media to each well using the Multidrop (Thermo Electron) (use white wall, clear bottom assay plates (Costar #3570) and incubate overnight at 37° C., 5% CO2. • 2. 0.25 μL 120× test compound (final DMSO concentration should be <1%) was added to each well n=2, 10 point titrations starting at 36.7 μM final concentration. • 3. 5 μL 6× agonist (final aldosterone concentration should be about 0.3 nM to about 1.0 nM) was added to all wells using the PlateMate Plus.
(ThermoFisher) (except those wells in columns 23 and 24) • 4. 5 μL of assay media was added to all wells in column 23 and 24. • 5. Plates were incubated 6 hrs at 37° C., 5% CO2. • 6. 15 μL 3× DiscoveRx detection reagent was added to each well. • 7. Plates were incubated for 1 hour at room temperature (plates stored in the dark). • 8. Plates were read on Envision (PerkinElmer) luminesence plate reader and analyzed using ADA.
For the molecule `C[C@H](c1ccc(F)cc1)N1C(=O)O[C@](Cc2ccccc2)(c2nc3c(Cl)cc(Cl)cc3[nH]2)C1=O` [Compound 19, (5R)-5-Benzyl-5-(4,6-dichloro-1H-benzimidazol-2-yl)-3-[(1R)-1-(4-fluorophenyl)ethyl]-1,3-oxazolidine-2,4-dione], the IC50 is under 100 nM.
Regarding `C[C@H](c1ccc(F)cc1)N1C(=O)O[C@](Cc2ccccc2)(c2nc3c(Cl)cccc3[nH]2)C1=O` [Compound 20, 5-Benzyl-5-(4-chloro-1H-benzimidazol-2-yl)-3-[(1R)-1-(4-fluorophenyl)ethyl]-1,3-oxazolidine-2,4-dione], the concentration for half-maximal inhibition (IC50) was 100 to 500 nM.
As for `CNC(=O)c1ccc2[nH]c([C@@]3(Cc4ccccc4)OC(=O)N([C@H](C)c4ccc(F)cc4)C3=O)nc2c1` [Compound 21, Methyl 2-{(5R)-5-benzyl-3-[(1R)-1-(4-fluorophenyl)ethyl]-2,4-dioxo-1,3-oxazolidin-5-yl}-1H-benzimidazole-5-carboxamide], the IC50 lay within 100 to 500 nM.
To `C[C@H](c1ccc(F)cc1)N1C(=O)O[C@](Cc2ccccc2)(c2nc3cc(-c4cncnc4)ccc3[nH]2)C1=O` [Compound 22, (5R)-5-Benzyl-3-[(1R)-1-(4-fluorophenyl)ethyl]-5-(5-pyrimidin-5-yl-1H-benzimidazol-2-yl)-1,3-oxazolidine-2,4-dione] belongs under 100 nM; to `Cc1noc(C)c1-c1ccc2[nH]c([C@@]3(Cc4ccccc4)OC(=O)N([C@H](C)c4ccc(F)cc4)C3=O)nc2c1` [Compound 23, (5R)-5-Benzyl-5-[5-(3,5-dimethylisoxazol-4-yl)-1H-benzimidazol-2-yl]-3-[(1R)-1-(4-fluorophenyl)ethyl]-1,3-oxazolidine-2,4-dione], under 100 nM; to `C[C@H](c1ccc(F)cc1)N1C(=O)O[C@](Cc2ccccc2)(c2nc3cc(-c4cnn(C)c4)ccc3[nH]2)C1=O` [Compound 24, (5R)-5-Benzyl-3-[(1R)-1-(4-fluorophenyl)ethyl]-5-[5-(1-methyl-1H-pyrazol-4-yl)-1H-benzimidazol-2-yl]-1,3-oxazolidine-2,4-dione], under 100 nM.
As for `C[C@H](c1ccc(F)cc1)N1C(=O)O[C@](Cc2ccccc2)(c2nc3cc(-c4cccnc4)ccc3[nH]2)C1=O` [Compound 25, (5R)-5-Benzyl-3-[(1R)-1-(4-fluorophenyl)ethyl]-5-(5-pyridin-3-yl-1H-benzimidazol-2-yl)-1,3-oxazolidine-2,4-dione], the 50% inhibitory concentration (IC50) is under 100 nM.
To `C[C@H](c1ccc(F)cc1)N1C(=O)O[C@](Cc2ccccc2)(c2nc3cc(-c4cn[nH]c4)ccc3[nH]2)C1=O` [Compound 26, (5R)-5-Benzyl-3-[(1R)-1-(4-fluorophenyl)ethyl]-5-[5-(1H-pyrazol-4-yl)-1H-benzimidazol-2-yl]-1,3-oxazolidine-2,4-dione] belongs under 100 nM; to `C[C@H](c1ccc(F)cc1)N1C(=O)O[C@](Cc2ccccc2)(c2nc3cc(-c4cc[nH]n4)ccc3[nH]2)C1=O` [Compound 27, (5R)-5-Benzyl-3-[(1R)-1-(4-fluorophenyl)ethyl]-5-[5-(1H-pyrazol-5-yl)-1H-benzimidazol-2-yl]-1,3-oxazolidine-2,4-dione], 100 to 500 nM; to `C[C@H](c1ccc(F)cc1)N1C(=O)O[C@](Cc2ccccc2)(c2nc3cc(-c4cncc(F)c4)ccc3[nH]2)C1=O` [Compound 28, (5R)-5-Benzyl-3-[(1R)-1-(4-fluorophenyl)ethyl]-5-[5-(5-fluoro-pyridin-3-yl)-1H-benzimidazol-2-yl]-1,3-oxazolidine-2,4-dione], under 100 nM.
Regarding `C[C@H](c1ccc(F)cc1)N1C(=O)O[C@](Cc2ccccc2)(c2nc3c(-c4cnoc4)cccc3[nH]2)C1=O` [Compound 30, (5R)-5-Benzyl-3-[(1R)-1-(4-fluorophenyl)ethyl]-5-(4-isoxazol-4-yl-1H-benzimidazol-2-yl)-1,3-oxazolidine-2,4-dione], the IC50 was in the range of 500 to 2000 nM.
As for `C[C@H](c1ccc(F)cc1)N1C(=O)O[C@](Cc2ccccc2)(c2nc3c(-c4cnn(C)c4)cccc3[nH]2)C1=O` [Compound 31, (5R)-5-Benzyl-3-[(1R)-1-(4-fluorophenyl)ethyl]-5-[4-(1-methyl-1H-pyrazol-4-yl)-1H-benzimidazol-2-yl]-1,3-oxazolidine-2,4-dione], the IC50 lay in the range of 100 to 500 nM.
Consider `C[C@H](c1ccc(F)cc1)N1C(=O)O[C@](Cc2ccccc2)(c2nc3c(-c4ccnn4C)cccc3[nH]2)C1=O` [Compound 32, (5R)-5-Benzyl-3-[(1R)-1-(4-fluorophenyl)ethyl]-5-[4-(1-methyl-1H-pyrazol-5-yl)-1H-benzimidazol-2-yl]-1,3-oxazolidine-2,4-dione], for which the half-maximal inhibitory concentration (IC50) was in the range of 100 to 500 nM.
With `COc1ncccc1-c1cccc2[nH]c([C@@]3(Cc4ccccc4)OC(=O)N([C@H](C)c4ccc(F)cc4)C3=O)nc12` [Compound 33, (5R)-5-Benzyl-3-[(1R)-1-(4-fluorophenyl)ethyl]-5-[4-(2-methoxypyridin-3-yl)-1H-benzimidazol-2-yl]-1,3-oxazolidine-2,4-dione], the 50% inhibitory concentration (IC50) was under 100 nM.
As for `C[C@H](c1ccc(F)cc1)N1C(=O)O[C@](Cc2ccccc2)(c2nc3c(-c4ccncc4)cccc3[nH]2)C1=O` [Compound 34, (5R)-5-Benzyl-3-[(1R)-1-(4-fluorophenyl)ethyl]-5-(4-pyridin-4-yl-1H-benzimidazol-2-yl)-1,3-oxazolidine-2,4-dione], the 50% inhibitory concentration (IC50) was 100 to 500 nM.
With `C[C@H](c1ccc(F)cc1)N1C(=O)O[C@](Cc2ccccc2)(c2nc3c(-c4cncnc4)cccc3[nH]2)C1=O` [Compound 35, (5R)-5-Benzyl-3-[(1R)-1-(4-fluorophenyl)ethyl]-5-(4-pyrimidin-5-yl-1H-benzimidazol-2-yl)-1,3-oxazolidine-2,4-dione], the IC50 fell in the range of 100 to 500 nM.

In general, IC50 refers to the point on the concentration scale where inhibition reaches its midpoint.
